What was measured:
Assay in all cases: relative viability (nuclei count vs DMSO), 5 days (fraction); higher = more cells survive
Venetoclax + Decitabine = compound: CC1(C)CCC(CN2CCN(c3ccc(C(=O)NS(=O)(=O)c4ccc(NCC5CCOCC5)c([N+](=O)[O-])c4)c(Oc4cnc5[nH]ccc5c4)c3)CC2)=C(c2ccc(Cl)cc2)C1 [Venetoclax] + Nc1ncn([C@H]2C[C@H](O)[C@@H](CO)O2)c(=O)n1 [Decitabine] (partner 2 µM)
Outline: (§1)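 Medians of duplicate plates are given as relative viability. That measure is the nuclei count in treated wells divided by the count in vehicle wells. Counts were taken on 4× images of lung cancer cell lines in 1536-well plates, 5 days after pin-tool dosing the day after seeding with one drug alone or a fixed anchor-drug dose plus five library-drug doses (not always all listed) in √10 steps.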

Venetoclax + Vorinostat = compound: CC1(C)CCC(CN2CCN(c3ccc(C(=O)NS(=O)(=O)c4ccc(NCC5CCOCC5)c([N+](=O)[O-])c4)c(Oc4cnc5[nH]ccc5c4)c3)CC2)=C(c2ccc(Cl)cc2)C1 [Venetoclax] + O=C(CCCCCCC(=O)Nc1ccccc1)NO [Vorinostat] (partner 1 µM)
Outline: as §1

Selumetinib + Lapatinib = compound: Cn1cnc2c(F)c(Nc3ccc(Br)cc3Cl)c(C(=O)NOCCO)cc21 [Selumetinib] + CS(=O)(=O)CCNCc1ccc(-c2ccc3ncnc(Nc4ccc(OCc5cccc(F)c5)c(Cl)c4)c3c2)o1 [Lapatinib] (partner 2 µM)
Outline: as §1

Selumetinib + Alpelisib = compound: Cn1cnc2c(F)c(Nc3ccc(Br)cc3Cl)c(C(=O)NOCCO)cc21 [Selumetinib] + Cc1nc(NC(=O)N2CCC[C@H]2C(N)=O)sc1-c1ccnc(C(C)(C)C(F)(F)F)c1 [Alpelisib] (partner 2 µM)
Outline: as §1

Cell Line | relative viability (Venetoclax + Decitabine; first compound 0.01 µM) | relative viability (Venetoclax + Decitabine; first compound 0.03162 µM) | relative viability (Venetoclax + Decitabine; first compound 0.1 µM) | relative viability (Venetoclax + Decitabine; first compound 0.3162 µM) | relative viability (Venetoclax + Decitabine; first compound 1 µM) | relative viability (Venetoclax + Vorinostat; first compound 0.01 µM) | relative viability (Venetoclax + Vorinostat; first compound 0.03162 µM) | relative viability (Venetoclax + Vorinostat; first compound 0.1 µM) | relative viability (Venetoclax + Vorinostat; first compound 0.3162 µM) | relative viability (Venetoclax + Vorinostat; first compound 1 µM) | relative viability (Selumetinib + Lapatinib; first compound 0.02 µM) | relative viability (Selumetinib + Lapatinib; first compound 0.06325 µM) | relative viability (Selumetinib + Lapatinib; first compound 0.2 µM) | relative viability (Selumetinib + Lapatinib; first compound 0.6325 µM) | relative viability (Selumetinib + Alpelisib; first compound 0.02 µM) | relative viability (Selumetinib + Alpelisib; first compound 0.06325 µM) | relative viability (Selumetinib + Alpelisib; first compound 0.2 µM) | relative viability (Selumetinib + Alpelisib; first compound 0.6325 µM)
201T | 0.774 | 0.834 | 0.792 | 0.82 | 0.825 | 0.858 | 1.02 | 0.917 | 0.975 | 0.947 | 1.01 | 0.963 | 0.958 | 0.949 | 0.95 | 0.954 | 0.906 | 0.824
A549 | 0.22 | 0.325 | 0.159 | 0.214 | 0.274 | – | – | – | – | – | 0.84 | 0.731 | 0.749 | 0.5 | 0.675 | 0.438 | 0.311 | 0.296
A-427 | 0.54 | 0.546 | 0.55 | 0.54 | 0.559 | 0.834 | 0.863 | 0.857 | 0.849 | 0.879 | 0.98 | 0.914 | 1.09 | 1.1 | 1.06 | 1.05 | 0.936 | 0.817
ABC-1 | 1.07 | 1.24 | 1.02 | 1.12 | 1.24 | 1.04 | 1.24 | 1.13 | 1.32 | 0.939 | 1.22 | 1.27 | 0.967 | 1.03 | 0.826 | 0.743 | 0.852 | 0.643
BEN | 0.747 | 0.721 | 0.737 | 0.653 | 0.673 | 0.599 | 0.603 | 0.494 | 0.556 | 0.523 | 0.69 | 0.829 | 0.637 | 0.648 | 1.02 | 0.932 | 0.861 | 0.886
CAL-12T | – | – | – | – | – | 0.684 | 0.782 | 0.683 | 0.865 | 0.56 | 0.542 | 0.425 | 0.523 | 0.521 | 1.22 | 0.823 | 0.895 | 0.817
COR-L23 | 0.458 | 0.478 | 0.444 | 0.454 | 0.39 | 0.428 | 0.439 | 0.39 | 0.433 | 0.392 | 1.18 | 1.1 | 0.98 | 1 | 0.91 | 0.825 | 0.793 | 0.654
COR-L 105 | 0.581 | 0.589 | 0.694 | 0.76 | 0.652 | 0.789 | 0.763 | 0.866 | 0.899 | 0.818 | 0.309 | 0.3 | 0.337 | 0.366 | 1.29 | 0.746 | 0.767 | 0.6
Calu-6 | – | – | – | – | – | – | – | – | – | – | 1.05 | 0.853 | 0.693 | 0.439 | 0.936 | 0.613 | 0.486 | 0.346
ChaGo-K-1 | 0.465 | 0.503 | 0.488 | 0.545 | 0.519 | 0.879 | 0.759 | 0.546 | 0.694 | 0.737 | – | – | – | – | – | – | – | –
EBC-1 | – | – | – | – | – | – | – | – | – | – | 0.203 | 0.201 | 0.239 | 0.199 | 0.779 | 0.591 | 0.556 | 0.361
EKVX | 0.33 | 0.327 | 0.317 | 0.392 | 0.35 | 0.618 | 0.838 | 0.602 | 0.771 | 0.592 | 0.171 | 0.263 | 0.241 | 0.168 | 0.678 | 0.711 | 0.61 | 0.448
EMC-BAC-2 | 0.983 | 0.989 | 0.981 | 1.02 | 0.956 | 0.465 | 0.783 | 0.352 | 0.672 | 0.417 | 0.955 | 0.898 | 0.905 | 0.862 | 0.678 | 0.694 | 0.645 | 0.712
EPLC-272H | 0.391 | 0.378 | 0.328 | 0.371 | 0.445 | 0.495 | 0.422 | 0.579 | 0.469 | 0.494 | 0.801 | 0.722 | 0.558 | 0.643 | 0.749 | 0.656 | 0.58 | 0.66
H3255 | 0.657 | 0.582 | 0.496 | 0.635 | 0.597 | 0.782 | 0.899 | 0.897 | 0.777 | 0.733 | 0.238 | 0.267 | 0.218 | 0.243 | 0.596 | 0.678 | 0.573 | 0.556
HARA | 0.62 | 0.633 | – | 0.72 | 0.606 | 0.568 | 0.605 | 0.554 | 0.512 | 0.4 | 0.657 | 0.506 | 0.606 | 0.486 | 0.701 | 0.647 | 0.549 | 0.353
HCC-15 | 0.519 | 0.699 | 0.611 | 0.611 | 0.543 | 0.8 | 0.799 | 0.812 | 0.841 | 0.853 | 0.786 | 0.575 | 0.463 | 0.398 | 0.683 | 0.405 | 0.347 | 0.19
HCC-44 | 0.938 | 0.919 | 0.87 | 0.892 | 0.949 | 1.05 | 1.14 | 1.08 | 1.1 | 1 | 0.977 | 1 | 0.891 | 0.966 | 0.88 | 0.72 | 0.719 | 0.663
HCC-78 | 0.689 | 0.744 | 0.786 | 0.652 | 0.58 | 0.448 | 0.446 | 0.373 | 0.438 | 0.424 | 0.695 | 0.64 | 0.657 | 0.675 | 0.286 | 0.321 | 0.219 | 0.298
HCC-366 | 0.354 | 0.368 | 0.327 | 0.366 | 0.382 | 0.311 | 0.395 | 0.273 | 0.346 | 0.312 | 1.06 | 0.914 | 0.872 | 0.612 | 0.361 | 0.273 | 0.196 | 0.158
